Experimental data as given in ChEMBL document CHEMBL1201862, “PubChem BioAssay data set” (2004).
Calls of active or inactive are those of the source.

Experiments:
Cytochrome P450 2C9 = Cytochrome P450 2C9 (Homo sapiens, UniProt P11712)
Orexin receptor type 2 [1] = target: T1, Orexin receptor type 2 (Homo sapiens, UniProt O43614); assay: Counterscreen assay for antagonists of the orexin 1 receptor (OX1R; HCRTR1): Fluorescence-based cell-based dose response assay for antagonists of the orexin 2 receptor (OX2R; HCRTR2), run by assay provider.; type: functional
T1 sequence (O43614 whole entry): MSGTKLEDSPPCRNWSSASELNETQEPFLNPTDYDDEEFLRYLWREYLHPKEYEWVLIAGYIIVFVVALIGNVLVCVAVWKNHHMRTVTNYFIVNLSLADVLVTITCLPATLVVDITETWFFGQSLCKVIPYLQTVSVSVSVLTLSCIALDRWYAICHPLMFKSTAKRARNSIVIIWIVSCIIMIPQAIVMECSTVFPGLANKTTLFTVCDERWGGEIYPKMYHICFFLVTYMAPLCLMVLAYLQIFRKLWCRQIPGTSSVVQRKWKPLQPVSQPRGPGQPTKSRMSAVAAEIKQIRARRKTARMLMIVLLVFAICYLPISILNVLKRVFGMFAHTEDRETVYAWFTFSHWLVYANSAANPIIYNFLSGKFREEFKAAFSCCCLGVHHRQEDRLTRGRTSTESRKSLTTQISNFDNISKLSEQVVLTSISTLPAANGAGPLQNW

[2] = (§1) Counterscreen for antagonists of the orexin 1 receptor (OX1R; HCRTR1): Fluorescence-based cell-based high throughput dose response assay to identify antagonists of the parental CHO cell line. [Related pubchem assays (depositor defined):AID434989, AID435008, AID463079, AID485270, AID492963, AID492964, AID492965, AID493232, AID504699, AID504701]; type: functional
[3] = target: Peroxisome proliferator-activated receptor gamma/Nuclear receptor coactivator 3 (Homo sapiens, UniProt P37231); assay: TR-FRET dose response biochemical High Throughput Screening assay for agonists of the steroid receptor coactivator 3 (SRC-3) recruitment by the peroxisome proliferator-activated receptor gamma (PPAR gamma): non-selective agonists. [Related pubchem assays: 1301 (Confirmation screen.), 1048 (Primary screen.)]; type: functional
[4] = target: T2, Orexin/Hypocretin receptor type 1 (Homo sapiens, UniProt O43613); assay: (§2) Fluorescence-based cell-based high throughput dose response assay for antagonists of the orexin 1 receptor (OX1R; HCRTR1). [Related pubchem assays (depositor defined):AID434989, AID435008, AID463079, AID485270, AID492963, AID492964, AID492965, AID493232, AID504717, AID504718]; type: functional
T2 sequence (O43613 whole entry): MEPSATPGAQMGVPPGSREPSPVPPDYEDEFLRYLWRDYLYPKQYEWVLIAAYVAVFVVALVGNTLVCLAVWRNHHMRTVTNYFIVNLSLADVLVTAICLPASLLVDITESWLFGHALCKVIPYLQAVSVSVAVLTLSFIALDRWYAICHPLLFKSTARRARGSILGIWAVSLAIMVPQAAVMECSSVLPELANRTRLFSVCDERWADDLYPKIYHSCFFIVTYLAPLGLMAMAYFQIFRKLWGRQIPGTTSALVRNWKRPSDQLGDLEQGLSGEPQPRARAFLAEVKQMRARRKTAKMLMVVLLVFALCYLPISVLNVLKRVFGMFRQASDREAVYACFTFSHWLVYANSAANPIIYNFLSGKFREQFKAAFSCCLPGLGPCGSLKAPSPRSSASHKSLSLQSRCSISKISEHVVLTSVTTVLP

[5] = target: Peroxisome proliferator-activated receptor gamma/Nuclear receptor coactivator 2 (Homo sapiens, UniProt P37231); assay: (§3) TR-FRET dose response biochemical High Throughput Screening assay for agonists of the steroid receptor coactivator 2 (SRC-2) recruitment by the peroxisome proliferator-activated receptor gamma (PPAR gamma): non-selective agonists. [Related pubchem assays: 1297, 1032 ]; type: functional
[6] = target: Peroxisome proliferator-activated receptor gamma/Nuclear receptor coactivator 1 (Homo sapiens, UniProt P37231); assay: as §3, with “1 (SRC-1)” for “2 (SRC-2)”, “assays (depositor defined):AID1300, AID1808, AID504735, AID631]” for “assays: 1297, 1032 ]”; type: protein assay
[7] = target: Peroxisome proliferator-activated receptor gamma/Nuclear receptor corepressor 2 (Homo sapiens, UniProt P37231+Q9Y618); assay: Counterscreen for NR2E3 inverse agonists: TR-FRET-based biochemical high throughput dose response assay to identify inverse agonists of the interaction between peroxisome proliferator-activated receptor gamma (PPARg) and nuclear receptor co-repressor 2 (NCOR2).; type: functional
CHO-K1 = assay: as §1, with “Homogeneous time resolved fluorescence (HTRF)-based” for “Fluorescence-based”, “cell-based” for “cell-based high throughput”, “CHO-K1” for “CHO”; type: functional; settings: Cricetulus griseus;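 further: potency for inhibition of ATP-stimulated IP1 production as antagonists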
[8] = target: Photoreceptor-specific nuclear receptor (Homo sapiens, UniProt Q9Y5X4); assay: NR2E3 inverse agonists, dose response, biochemical, TR-FRET (AID 463256); type: functional
[9] = target: T2, Orexin/Hypocretin receptor type 1; assay: as §2, with “Homogeneous Time Resolved Fluorescence (HTRF)-based” for “Fluorescence-based”; type: functional
Orexin receptor type 2 [10] = target: T1, Orexin receptor type 2; assay: Counterscreen assay for antagonists of the orexin 1 receptor (OX1R; HCRTR1): Homogeneous Time Resolved Fluorescence (HTRF)-based cell-based dose response assay for antagonists of the orexin 2 receptor (OX2R; HCRTR2), run by assay provider.; type: functional
CAAX prenyl protease 1 = CAAX prenyl protease 1 (Saccharomyces cerevisiae S288c, UniProt P47154); assay: Ste24 protease inhibitors, dose response, biochemical, S. cerevisiae, plate reader, cherry-pick (AID 488815)
Cytochrome P450 2D6 = Cytochrome P450 2D6 (Homo sapiens, UniProt P10635);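 further: CYP2D6 member of a cytochrome P450 panel assay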
Cytochrome P450 3A4 = Cytochrome P450 3A4 (Homo sapiens, UniProt P08684);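 further: CYP3A4 tested as one member of a cytochrome P450 panel screen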
Sequence of Cytochrome P450 3A4 (P08684 whole entry): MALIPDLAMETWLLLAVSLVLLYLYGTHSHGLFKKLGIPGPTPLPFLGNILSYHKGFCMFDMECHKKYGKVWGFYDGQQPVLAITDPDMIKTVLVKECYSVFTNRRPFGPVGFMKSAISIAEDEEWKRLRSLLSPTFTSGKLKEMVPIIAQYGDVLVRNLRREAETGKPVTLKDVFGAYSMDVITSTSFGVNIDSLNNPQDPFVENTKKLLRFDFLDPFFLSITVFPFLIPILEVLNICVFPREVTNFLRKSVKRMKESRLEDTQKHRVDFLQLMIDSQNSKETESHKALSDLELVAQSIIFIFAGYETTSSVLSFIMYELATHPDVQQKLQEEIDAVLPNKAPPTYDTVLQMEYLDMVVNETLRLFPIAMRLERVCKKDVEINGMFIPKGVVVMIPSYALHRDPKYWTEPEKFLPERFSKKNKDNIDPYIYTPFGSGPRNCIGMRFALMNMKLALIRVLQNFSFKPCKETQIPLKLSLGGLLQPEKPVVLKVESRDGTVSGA

Sequence of CAAX prenyl protease 1 (P47154 whole entry): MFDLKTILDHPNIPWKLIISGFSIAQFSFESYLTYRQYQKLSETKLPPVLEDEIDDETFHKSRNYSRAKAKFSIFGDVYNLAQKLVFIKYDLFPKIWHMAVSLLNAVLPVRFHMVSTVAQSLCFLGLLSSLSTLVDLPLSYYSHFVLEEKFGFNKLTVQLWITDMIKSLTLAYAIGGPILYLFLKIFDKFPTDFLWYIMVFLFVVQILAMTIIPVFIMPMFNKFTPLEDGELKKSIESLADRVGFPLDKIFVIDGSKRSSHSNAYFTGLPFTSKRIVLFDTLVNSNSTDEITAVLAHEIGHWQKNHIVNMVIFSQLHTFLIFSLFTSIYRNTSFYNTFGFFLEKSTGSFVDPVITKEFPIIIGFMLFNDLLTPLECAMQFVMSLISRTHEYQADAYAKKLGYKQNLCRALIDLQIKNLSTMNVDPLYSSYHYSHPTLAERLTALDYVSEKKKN
Sequence of Cytochrome P450 2C9 (P11712 whole entry): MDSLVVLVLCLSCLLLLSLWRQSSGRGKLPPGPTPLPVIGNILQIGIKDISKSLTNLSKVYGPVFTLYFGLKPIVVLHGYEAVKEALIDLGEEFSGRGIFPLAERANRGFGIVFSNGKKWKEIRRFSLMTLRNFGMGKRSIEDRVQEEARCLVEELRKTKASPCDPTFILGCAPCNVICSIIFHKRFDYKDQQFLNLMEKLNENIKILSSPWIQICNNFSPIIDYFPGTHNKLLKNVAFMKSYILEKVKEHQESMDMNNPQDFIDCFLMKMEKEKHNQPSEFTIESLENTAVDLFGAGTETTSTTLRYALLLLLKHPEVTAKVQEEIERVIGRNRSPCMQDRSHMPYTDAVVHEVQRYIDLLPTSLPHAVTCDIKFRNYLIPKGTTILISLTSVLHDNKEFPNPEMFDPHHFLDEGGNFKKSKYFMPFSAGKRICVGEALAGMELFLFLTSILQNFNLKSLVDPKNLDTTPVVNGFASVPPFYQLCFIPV
Sequence of Peroxisome proliferator-activated receptor gamma/Nuclear receptor coactivator 1 (P37231 whole entry): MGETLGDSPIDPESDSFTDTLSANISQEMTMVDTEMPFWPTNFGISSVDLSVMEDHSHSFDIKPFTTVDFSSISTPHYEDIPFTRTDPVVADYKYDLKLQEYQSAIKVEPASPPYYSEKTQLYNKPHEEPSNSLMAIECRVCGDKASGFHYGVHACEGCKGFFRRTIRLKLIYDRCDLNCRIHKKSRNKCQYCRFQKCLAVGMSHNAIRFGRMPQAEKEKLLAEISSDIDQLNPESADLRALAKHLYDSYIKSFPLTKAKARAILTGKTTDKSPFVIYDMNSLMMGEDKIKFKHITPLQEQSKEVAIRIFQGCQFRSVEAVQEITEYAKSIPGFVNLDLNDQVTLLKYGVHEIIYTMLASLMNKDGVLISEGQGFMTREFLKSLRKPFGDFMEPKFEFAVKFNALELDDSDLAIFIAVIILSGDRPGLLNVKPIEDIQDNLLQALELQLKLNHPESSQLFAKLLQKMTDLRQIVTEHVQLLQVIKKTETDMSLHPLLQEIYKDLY
Sequence of Peroxisome proliferator-activated receptor gamma/Nuclear receptor coactivator 1 (Q15788 whole entry, further chain): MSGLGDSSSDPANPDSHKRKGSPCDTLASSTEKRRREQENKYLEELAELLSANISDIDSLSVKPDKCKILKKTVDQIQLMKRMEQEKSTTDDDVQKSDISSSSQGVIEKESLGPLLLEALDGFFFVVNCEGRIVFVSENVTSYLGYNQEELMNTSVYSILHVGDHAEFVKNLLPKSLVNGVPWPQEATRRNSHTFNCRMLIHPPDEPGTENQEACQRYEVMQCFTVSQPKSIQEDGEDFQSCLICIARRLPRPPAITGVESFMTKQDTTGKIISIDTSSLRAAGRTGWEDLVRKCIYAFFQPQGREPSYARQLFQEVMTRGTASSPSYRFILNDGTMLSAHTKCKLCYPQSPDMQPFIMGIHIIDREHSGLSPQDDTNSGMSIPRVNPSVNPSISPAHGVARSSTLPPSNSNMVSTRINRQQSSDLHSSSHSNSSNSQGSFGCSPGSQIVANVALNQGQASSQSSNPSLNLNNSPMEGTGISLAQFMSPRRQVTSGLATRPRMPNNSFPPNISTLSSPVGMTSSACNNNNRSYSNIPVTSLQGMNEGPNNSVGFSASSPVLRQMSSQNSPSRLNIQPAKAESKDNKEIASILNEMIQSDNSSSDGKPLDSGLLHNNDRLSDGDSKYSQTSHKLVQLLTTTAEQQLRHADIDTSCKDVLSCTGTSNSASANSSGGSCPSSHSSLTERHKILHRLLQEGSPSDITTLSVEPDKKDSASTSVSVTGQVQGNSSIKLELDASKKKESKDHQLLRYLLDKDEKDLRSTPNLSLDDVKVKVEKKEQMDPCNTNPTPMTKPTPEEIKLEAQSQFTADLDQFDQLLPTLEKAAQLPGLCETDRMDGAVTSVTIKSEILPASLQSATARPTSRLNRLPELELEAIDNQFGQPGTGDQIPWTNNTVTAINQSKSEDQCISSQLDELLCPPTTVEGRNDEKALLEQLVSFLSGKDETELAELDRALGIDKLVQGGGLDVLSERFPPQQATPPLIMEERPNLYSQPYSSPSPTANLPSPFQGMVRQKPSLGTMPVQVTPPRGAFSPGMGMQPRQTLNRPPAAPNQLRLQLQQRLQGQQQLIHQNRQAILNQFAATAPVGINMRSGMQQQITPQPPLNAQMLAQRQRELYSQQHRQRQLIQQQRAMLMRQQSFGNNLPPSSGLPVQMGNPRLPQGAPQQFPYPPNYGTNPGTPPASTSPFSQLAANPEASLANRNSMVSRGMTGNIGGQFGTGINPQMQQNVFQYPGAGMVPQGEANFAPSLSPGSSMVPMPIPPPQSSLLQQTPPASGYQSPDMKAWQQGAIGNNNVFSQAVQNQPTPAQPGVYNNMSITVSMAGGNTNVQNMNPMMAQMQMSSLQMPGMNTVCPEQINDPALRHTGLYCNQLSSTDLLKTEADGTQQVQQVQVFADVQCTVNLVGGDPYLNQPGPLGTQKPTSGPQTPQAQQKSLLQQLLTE
Sequence of Photoreceptor-specific nuclear receptor (Q9Y5X4 whole entry): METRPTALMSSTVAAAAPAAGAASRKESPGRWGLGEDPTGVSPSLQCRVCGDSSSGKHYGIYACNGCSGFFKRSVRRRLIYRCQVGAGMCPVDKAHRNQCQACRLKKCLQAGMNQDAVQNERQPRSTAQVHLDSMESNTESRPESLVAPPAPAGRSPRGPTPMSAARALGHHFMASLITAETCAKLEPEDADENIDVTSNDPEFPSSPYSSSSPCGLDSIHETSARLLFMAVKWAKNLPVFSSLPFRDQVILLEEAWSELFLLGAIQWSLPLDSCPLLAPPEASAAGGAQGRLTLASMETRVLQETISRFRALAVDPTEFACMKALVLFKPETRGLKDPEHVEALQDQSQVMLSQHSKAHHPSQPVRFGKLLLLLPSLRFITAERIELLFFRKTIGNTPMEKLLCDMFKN
Sequence of Cytochrome P450 2D6 (P10635 whole entry): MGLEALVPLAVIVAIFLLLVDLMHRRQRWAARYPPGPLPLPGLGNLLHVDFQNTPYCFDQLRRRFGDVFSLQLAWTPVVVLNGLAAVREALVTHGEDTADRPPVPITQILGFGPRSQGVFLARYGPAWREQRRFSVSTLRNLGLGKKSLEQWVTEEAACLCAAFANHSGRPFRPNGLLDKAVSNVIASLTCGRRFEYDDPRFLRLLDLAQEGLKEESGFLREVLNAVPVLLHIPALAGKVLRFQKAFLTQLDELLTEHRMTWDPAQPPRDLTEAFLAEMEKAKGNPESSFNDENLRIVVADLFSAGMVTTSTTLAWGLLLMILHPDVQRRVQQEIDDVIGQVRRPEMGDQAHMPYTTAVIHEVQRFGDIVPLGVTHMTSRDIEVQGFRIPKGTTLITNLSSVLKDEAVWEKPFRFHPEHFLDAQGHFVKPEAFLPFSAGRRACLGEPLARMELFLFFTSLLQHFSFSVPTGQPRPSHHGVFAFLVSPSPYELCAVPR

SMILES: CCOc1ccccc1Oc1coc2cc(OC)ccc2c1=O
- AC50 (Cytochrome P450 2C9): inconclusive

SMILES: NS(=O)(=O)c1ccc(CNC(=O)c2cc(-c3ccccn3)nc3ccc(Cl)cc23)cc1
- IC50 (Orexin receptor type 2 [1]): 30.1 µM (inactive)
- IC50 [2]: > 49.7 µM (inactive)
- EC50 [3]: 17.6 µM (not active)
- IC50 [4]: > 49.7 µM (inactive)
- EC50 [5]: 5.82 µM (active)
- EC50 [6]: 6.13 µM (active)
- IC50 [7]: > 39.9 µM (not active)
- IC50 (CHO-K1): > 66.2 µM (inactive)
- IC50 [8]: > 4.43 µM (active)
- IC50 [9]: 2.46 µM (active)
- IC50 (Orexin receptor type 2 [10]): > 50 µM (inactive)

SMILES: COc1cc(OC)cc(-c2ncc3ccccn23)c1
- AC50 (CAAX prenyl protease 1): 5.47 µM (active)

SMILES: Br/C(=N\N=c1/nn[nH][nH]1)c1ccncc1
- AC50 (Cytochrome P450 2D6): inconclusive
- AC50 (Cytochrome P450 3A4): 5.01 µM (inconclusive)
